Results: patent publication US20260169011A1, “METHODS AND COMPOSITIONS FOR PROVIDING CUSTOMIZED NUTRITIONAL SUPPLEMENTS” (Vibrant Holdings LLC, priority 2023, published 2026)
Where two headings read alike, the source gives them in different places.

Tests used:
[1] = NutriPro test: serum, RBC and WBC nutrient values before and after ATB / customized blend; type: in vivo, human
Description: The method for providing a nutritional supplement for a subject as disclosed herein is based on a comprehensive panel that assesses intracellular and extracellular levels of at least or up to 41 nutrients. […] Blood analysis using the method disclosed herein tests for nutrient levels in serum, red blood cells (RBCs), and white blood cells (WBCs). Additional genetic testing can assess patients' predispositions toward nutrient deficiencies. Based on the blood and genetic analysis results, a subsequent supplementation diet comprising supplements and food sources can be designed and implemented. The subject can be a human subject.
(§1) In some embodiments, the detection method is mass spectrometry.
The ‘NutriPro’ test is used to assess serum (extracellular), RBC, and WBC (intracellular) nutrient values along with genetic testing for any predispositions with could be affecting nutrient values in the body. If required, additional tests such as the gut zoomer, cardiovascular health, thyroid test, kidney function test, liver function test, etc, are carried out. FIG. 1 provides a schematic diagram of the process of the NutriPro test from the individual subject to the creation of customized nutritional blends.
The ATB is given to the individual for nutritional supplementation, and blood testing for nutrients in serum, RBC, and WBC is carried out after 3 or 6 months.
The assessed change is called the VAF.
After testing, the individual takes the ATB or the customized blend for the amount of time indicated.

[2] = Intracellular (RBC / WBC, cellular) nutrient levels by mass spectrometry; type: in vivo, human; details: Level: Cells, person; for Follow-up Nutrient Level: after customized blend; for Actual Nutrient Value (ANV): before customized blend
Description: as §1

[3] = cited from earlier work
[4] = Extracellular (serum) nutrient levels by mass spectrometry (LC-MS, GC-MS, ICP-MS); details: for Follow-up Nutrient Level / Actual Nutrient Value (ANV): Level: Serum, person; for Follow-up Nutrient Level: after customized blend; for Actual Nutrient Value (ANV): before customized blend
Description: (§2) In some embodiments, the detection method assesses nutrients both in extracellular plasma and intracellular in RBC and WBC. In some embodiments, the detection method is mass spectroscopy-based. The extracellular and intracellular nutrient levels provide a comprehensive analysis of a subject's nutrient status, reflecting not only the intake levels but also the absorption levels into the cells.
(§3) In some aspects, the extracellular nutrient levels provide a snapshot of the status of nutrient baseline levels at a given time. It is a reflection of a person's diet over a narrow period of time. In contrast, the intracellular levels of nutrients provide information on the absorbed levels of nutrients, thus accounting for factors such as aging, lifestyle, chronic illness, medication, etc. that could interfere with absorption and can change the functional nutritional levels.
(§4) In some embodiments, the detection method is mass spectrometry. In some embodiments, the detection method is Liquid chromatography-mass spectrometry (LC-MS), Gas chromatography-mass spectrometry (GC-MS), or Inductively coupled plasma-mass-spectrometry (ICP-MS). In some embodiments, the detection method is Liquid chromatography-mass spectrometry (LC-MS). In some embodiments, the detection method is Gas chromatography-mass spectrometry (GC-MS). In some embodiments, the detection method is Inductively coupled plasma-mass-spectrometry (ICP-MS).
(§5) In some embodiments, the method provided herein evaluates nutrient levels, both in extracellular serum and inside (intracellular) red blood cells (RBC) and/or white blood cells (WBC). The extracellular nutrient levels provide a snapshot of the status of nutrient baseline levels at a given time. These extracellular nutrient levels are a reflection of a person's diet over a narrow period of time. In contrast, RBCs have a normal lifespan of 120 days, and thus intracellular assessments for nutrients in RBCs can provide information on nutrients over longer periods. Additionally, the intracellular levels of nutrients provide information on the absorbed levels of nutrients, thus accounting for factors such as, but not limited to, aging, lifestyle, chronic illness, and medication, that can interfere with absorption and can change the functional nutritional levels. Moreover, actual nutrient utilization occurs inside the cell owing to cellular metabolic processes. At times, nutrients could be present in serum, but poor cellular uptake may result in cells being devoid of these nutrients, thus giving rise to nutrient deficiencies owing to affected cellular activities. […] As a result, it is important to assess nutrients intracellularly in addition to extracellularly. Thus, the intracellular assessment provides information on cellular uptake and utilization of nutrients at the most fundamental level, enabling understanding of the root cause of nutrient deficiencies.
(§6) The subject individual fills out the health questionnaire (PHQ) which helps establishes factors such as symptoms, complications, comorbidities, and ongoing medications. The subject's blood is drawn and the extracellular serum and intracellular blood cells are tested for nutritional deficiencies via mass spectroscopy (e.g., Liquid chromatography-mass spectrometry (LC-MS), Gas chromatography-mass spectrometry (GC-MS), or Inductively coupled plasma-mass-spectrometry (ICP-MS)).

[5] = Vibrant Absorption Factor (VAF): difference of post- and pre-supplementation nutrient values divided by ATB dosage
[6] = Zone Approach: nutrient zone (Zone 1-5), target nutrient zone and follow-up zone; type: in vivo, human; details: Example 5: person, Zone Approach, CB followed for three months
Description: The second exemplary approach includes determining nutrient zones, and thus is referred to as the “Zone Approach.” According to some embodiments, the nutrient reference range for individuals can be divided into a number of zones, each indicating a nutrient wellness level. […] In some embodiments, for a given nutrient, each zone is associated with a specific multiplication factor, which can be used to determine the appropriate dosage for the CB. A few exemplary methods following this Zone Approach are further described hereinafter. […] Based on the assessment results, the current zone for each nutrient is determined at step 420a. In some embodiments, the genetic predispositions and cellular levels may influence the determination of the overall zone for a nutrient. […] This adjustment accounts for the impact of genetic polymorphisms and suboptimal cellular levels, each reducing the nutrient's zone by one or more zones. Therefore, this approach takes one or more of cellular and serum nutrient levels, along with their nutrient genetic profile into consideration to determine a given nutrient's overall zone. In the next, the Target Nutrient Zone (TNZ) to which the individual's each nutrient level is to be optimized is determined at step 430. […] In some embodiments, the determined TNZ is used to determine the multiplication factor used to adjust the starting dosage at step 440a, resulting in the CB dosage for each nutrient. In various embodiments, the multiplication factor is a fixed constant value, previously determined for a nutrient when moving from a first zone to a second zone. […] At step 450a, the CB with the determined nutrient dosages is administered to the individual for a predefined period. In some embodiments, a follow-up test is periodically conducted at step 460, to monitor the progress towards the target nutrient levels during the predefined period, for example, to check whether a target zone is reached or not for a given nutrient. In some embodiments, based on the results from the follow-up tests, it is further determined whether the dosage of the CB for a nutrient requires adjustment. If the adjustment is necessary, appropriate modification is made to the CB, for example, by increasing the TNZ to increase the nutrient levels. The modified CB is administered to the individual, and a reassessment is conducted again. In some embodiments, the personalized dosage of the nutritional supplement in the CB is modified as above after the at least one, two, three, four, five, six, seven, eight, nine, ten, or more repeats.

clinical = details: female, human, in vivo
Description: as §2, §3, §4, §5, §6

[7] = human, in vivo
Description: Improvement in nutrition can be determined by comparing the nutrient values in serum, RBC, and WBCs post-nutritional supplementation to the nutrient values in serum, RBC, and WBCs pre-nutritional supplementation. Based on the improvement, the change in the nutrient levels can be attributed to the per milligram dosage of the supplemented nutrients. The assessed nutritional change is the “Vibrant Absorption factor (VAF (see Equation (1) below). The VAF can be used to determine the subject's utilization of the supplemented nutrients, as determined by the difference in extracellular and intracellular nutrient values before and after supplementation. Based on the subject's utility or absorption of the nutrients, the dosage amount of the nutrient needed to be supplemented or increased to effect change of the subject's nutrient values into the optimum nutrient zone can be assessed. In various embodiments, the VAF is determined by administering a pre-determined formulation, referred to herein as the Absorption Testing Blend.
Next, the ATB is administered to the individual for a predefined period at step 320a, after which nutrient levels and the genetic nutrient profile are re-evaluated, to obtain the post-supplementation biomarker values at step 330.
This includes determining the VAF based on the difference between post- and pre-supplementation biomarker values, which is divided by the ATB dosage.
The assessed change is called the VAF. The VAF is used to understand how the individual's body is utilizing these nutrients, depending on the difference in extracellular and intracellular nutrient values before and after supplementation. Based on the body's utility or absorption of the nutrients, the amount of nutrients needed to be supplemented to alter the individual's nutrient values into the optimum nutrient zone is understood. The VAF calculations help in determining the appropriate dosages of nutrients required in the ‘customized blend.’

[8] = person one, serum, after customized blend
[9] = person two, serum, after customized blend

Row | SMILES | Post-test biomarker level ([1]; person one, serum, after ATB) [ng/mL] | Follow-up Biomarker level [1, 8] [ng/mL] | Pre-test biomarker level ([1]; person one, serum, before ATB) | Post-test biomarker level ([1]; person two, serum, after ATB) [ng/mL] | Follow-up Biomarker level [1, 9] [ng/mL] | Pre-test biomarker level ([1]; person two, serum, before ATB) [ng/mL] | UTL ([3]; Table 18, person one) | Follow-up Nutrient Level [4] | Actual Nutrient Value (ANV) [4] | VAF ([5]; person one, serum) | VAF ([5]; person two, serum) | other results
1 | [Ca] [Calcium] | 73000 | 104000 | 65000 ng/mL | 59000 | 104200 | 54000 | 2,500 mg/day | 6.2 mg/dL | 3.1 mg/dL | 0.8 | 0.5 | Follow-up Nutrient Level [2]: 4.2 ng/MM WBC; Actual Nutrient Value (ANV) [2]: 4.2 ng/MM WBC; UTL ([3]; Table 19, person two): 2,500 mg/day; UTL ([3]; upper tolerable limit): 2,500 mg/day
2 | O=C1O[C@H]([C@@H](O)CO)C(O)=C1O [Vitamin C] | – | – | – | – | – | – | – | 0.23 mg/dL | 0.1 mg/dL | – | – | Post-test biomarker level ([1]; person one, cells, after ATB): 1.1 pg/MM WBC; Follow-up Biomarker level ([1]; person one, cells, after customized blend): 9.2 pg/MM WBC; Pre-test biomarker level ([1]; person one, cells, before ATB): 0.05 pg/MM WBC; Post-test biomarker level ([1]; person two, cells, after ATB): 1.1 pg/MM WBC; Follow-up Biomarker level ([1]; person two, cells, after customized blend): 8.3 pg/MM WBC; Pre-test biomarker level ([1]; person two, cells, before ATB): 0.1 pg/MM WBC; VAF ([5]; person one, cells): 0.07; VAF ([5]; person two, cells): 0.06667
3 | Nc1nc2ncc(CNc3ccc(C(=O)N[C@@H](CCC(=O)O)C(=O)O)cc3)nc2c(=O)[nH]1 [Folate] | 2.8 | 14.3 | 1.2 ng/mL | – | – | 0.9 | – | – | 8e-05 mg/dL | 0.032 | 0.048 | Follow-up Biomarker level ([1]; female, human, in vivo): 14.5 ng/mL; Post-test biomarker level ([1]; female, human, in vivo): 3.3 ng/mL; concentration at 3 months ([4]; female, human, serum): 1.2 ng/mL
4 | CC/C=C\C/C=C\C/C=C\C/C=C\C/C=C\CCCC(=O)O [EPA] | – | – | – | – | – | – | – | – | – | – | – | Post-test biomarker level ([1]; person one, cells, after ATB, unit not given): 0.87; Follow-up Biomarker level ([1]; person one, cells, after customized blend, unit not given): 2.1; Pre-test biomarker level ([1]; person one, cells, before ATB, unit not given): 0.1; Follow-up Nutrient Level ([2]; unit not given): 0.05; Actual Nutrient Value (ANV) ([2]; unit not given): 0.05; VAF ([5]; person one, cells): 0.154
5 | [K+] [Potassium] | – | – | – | – | – | – | – | 3.4 mmol/L | 2.8 mmol/L | – | – | –
6 | NC(=O)CC[C@H](N)C(=O)O [L-glutamine, L-Glutamine] | – | – | 295.3 nmol/mL | – | – | – | 14000 mg/day | – | 0.302 mmol/L | 3.34 | – | Follow-up Biomarker level ([1]; male, human, in vivo): 697 nmol/mL; Post-test biomarker level ([1]; male, human, in vivo): 312 nmol/mL; Follow-up Nutrient Level ([1]; person three, serum, after customized blend): 677 nmol/mL; Actual Nutrient Value (ANV) ([1]; person three, serum, before customized blend): 290 nmol/mL; change of nutrient level at follow-up testing [6]: marginal increase; nutrient zone at follow-up testing [6]: Zone 2; concentration at 3 months (clinical): 371 µM; UTL ([3]; Table 20, person three): 14000 mg/day; UTL ([3]; upper tolerable limit): 14000 mg/day
7 | CC(C)(CO)[C@@H](O)C(=O)NCCC(=O)O [Vitamin B5] | – | – | – | 23.5 | 311 | 14.4 | – | 0.00144 mg/dL | 0.00054 mg/dL | – | 18.2 | –
8 | [Se] [Selenium] | – | – | – | – | – | – | – | – | – | – | – | Follow-up Biomarker level ([1]; female, human, in vivo): 267 ng/mL; Post-test biomarker level ([1]; female, human, in vivo): 122 ng/mL; Pre-test biomarker level ([1]; female, human, in vivo): 105 ng/mL; Actual Nutrient Value (ANV) ([1]; male, human, in vivo): 190 ng/mL; Follow-up Biomarker level ([1]; male, human, in vivo): 259 ng/mL; Follow-up Nutrient Level ([1]; male, human, in vivo): 267 ng/mL; Post-test biomarker level ([1]; male, human, in vivo): 167 ng/mL; Pre-test biomarker level ([1]; male, human, in vivo): 140 ng/mL; VAF ([7]; female): 2.267; VAF ([7]; male): 3.6
9 | COC1=C(OC)C(=O)C(C/C=C(\C)CC/C=C(\C)CC/C=C(\C)CC/C=C(\C)CC/C=C(\C)CC/C=C(\C)CC/C=C(\C)CC/C=C(\C)CC/C=C(\C)CCC=C(C)C)=C(C)C1=O [Coenzyme 10] | 320 | 1800 | 200 ng/mL | 1200 | 1880 | 100 | 1,200 mg/day | – | – | 0.024 | 0.22 | UTL ([3]; Table 19, person two): 1,200 mg/day
